Reference: patent US11155550B2, “Histone deacetylase inhibitors and methods of use thereof” (Reaction Biology Corp., priority 2018, dated 2021)
Where “and” joins values, the source holds several entries; their conditions need not be identical. Equal entries are not always repeated. Where two headings read alike, the source gives them in different places. Values belong to the compound of their own block, whether it stands above or below them.

Legend:
Human HDAC5 = target: T1, Human HDAC5 (Homo sapiens, UniProt Q9UQL6); assay: Biochemical HDAC enzymatic assay, HDAC5; details: Table 2; incubation time 10 min
T1 construct: full-length with an N-terminal GST tag, MW=150 kDa; GST tag (N); made in house; host or cells: baculovirus expression system
Description: (§1) Incubation time for HDAC1/2 is 120 min, and 10 min for other HDACs.
Human HDAC5 (GenBank Accession No. NM_005474), full-length with an N-terminal GST tag, MW=150 kDa, was expressed in a baculovirus expression system.
(§2) • I. Compound handling: Testing compounds were dissolved in 100% DMSO to a specific concentration. The serial dilution was conducted by epMotion 5070 in DMSO. • II. HDAC reaction buffer: 50 mM Tris-HCl, pH8.0, 137 mM NaCl, 2.7 mM KCl, and 1 mM MgCl2, Added fresh: 1 mg/ml BSA, 1% DMSO. • III. […] Delivered 2× Substrate Mixture (Fluorogenic HDAC Substrate and co-factor ([…] of Nicotinamide adenine dinucleotide (NAD^+) in all Sirt assay) in all reaction wells to initiate the reaction. Spin and shake. • d. Incubated for 1-2 hr. at 30° C. with seal. • e. Added Developer with Trichostatin A (or TMP269 or NAD^+) to stop the reaction and to generate fluorescent color. • f. Fluorescence was read (excitatory, 360; emission, 460) using the EnVision Multilabel Plate Reader (Perkin Elmer) • g. Endpoint reading was taken for analysis after the development reaches plateau. • V. Data Analysis: The percentages of enzyme activity (relative to DMSO controls) and IC50 values were calculated using the GraphPad Prism 4 program based on a sigmoidal dose-response equation. […]

Human HDAC7 = target: T2, Human HDAC7 (Homo sapiens, UniProt Q8WUI4); assay: Biochemical HDAC enzymatic assay, HDAC7; details: Table 2; incubation time 10 min
T2 construct: (a.a. 518-end) with an N-terminal GST tag; GST tag (N); made in house; host or cells: baculovirus expression system
T2 sequence (Q8WUI4 479-952 limits assumed): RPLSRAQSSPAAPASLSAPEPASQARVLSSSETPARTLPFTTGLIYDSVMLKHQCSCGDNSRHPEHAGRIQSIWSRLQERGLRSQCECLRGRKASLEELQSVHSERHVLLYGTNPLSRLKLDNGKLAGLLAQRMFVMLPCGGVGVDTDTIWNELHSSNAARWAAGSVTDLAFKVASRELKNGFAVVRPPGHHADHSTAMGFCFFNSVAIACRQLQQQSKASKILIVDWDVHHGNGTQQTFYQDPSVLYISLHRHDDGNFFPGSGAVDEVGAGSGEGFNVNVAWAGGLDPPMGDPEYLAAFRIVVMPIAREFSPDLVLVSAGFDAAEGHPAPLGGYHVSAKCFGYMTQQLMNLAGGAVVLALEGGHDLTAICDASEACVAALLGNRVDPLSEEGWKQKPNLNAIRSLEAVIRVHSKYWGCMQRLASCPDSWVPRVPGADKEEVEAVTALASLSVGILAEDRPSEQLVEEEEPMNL
Description: as §1
Human HDAC7 (GenBank Accession No. AY302468), (a.a. 518-end) with an N-terminal GST tag, MW=78 kDa, was expressed in a baculovirus expression system.
as §2

[1] = Mouse plasma PK after oral administration; assay type: in vivo
Description: In vivo PK (pharmacokinetics) studies were run at Scripps Florida DMPK Core facility. Mouse plasma PK data was obtained using Compound Example 4 (N-(2-amino-5-(thiophen-2-yl)phenyl)-6-(8-methyl-2-oxo-1-oxa-3,8-diazaspiro[4.5]decan-3-yl)nicotinamide)
Dose: 1 mg/kg intravenous (IV) and 7 mg/kg oral dosage (PO)
Formulation: 0.1 mg/mL IV and 1 mg/mL PO solution in 10/10/80 DMSO/Tween80/Water
Mice Info: Male C57 Bl/6J

[2] = Brain exposure experiments in mice; assay type: in vivo, mouse; details: 1 hour after exposure
Description: Brain exposure experiments were performed wherein mice were exposed to Compound Example 4 at an IV dosage of 1 mg/kg (Table 5).

[3] = mouse plasma, 7 mg/kg PO, Average
[4] = mouse plasma, 7 mg/kg PO, individual mice, 7 mg/kg
[5] = IV 1 mg/kg, individual mice (7, 8, 9), 1 mg/kg

T1 sequence (Q9UQL6 whole entry): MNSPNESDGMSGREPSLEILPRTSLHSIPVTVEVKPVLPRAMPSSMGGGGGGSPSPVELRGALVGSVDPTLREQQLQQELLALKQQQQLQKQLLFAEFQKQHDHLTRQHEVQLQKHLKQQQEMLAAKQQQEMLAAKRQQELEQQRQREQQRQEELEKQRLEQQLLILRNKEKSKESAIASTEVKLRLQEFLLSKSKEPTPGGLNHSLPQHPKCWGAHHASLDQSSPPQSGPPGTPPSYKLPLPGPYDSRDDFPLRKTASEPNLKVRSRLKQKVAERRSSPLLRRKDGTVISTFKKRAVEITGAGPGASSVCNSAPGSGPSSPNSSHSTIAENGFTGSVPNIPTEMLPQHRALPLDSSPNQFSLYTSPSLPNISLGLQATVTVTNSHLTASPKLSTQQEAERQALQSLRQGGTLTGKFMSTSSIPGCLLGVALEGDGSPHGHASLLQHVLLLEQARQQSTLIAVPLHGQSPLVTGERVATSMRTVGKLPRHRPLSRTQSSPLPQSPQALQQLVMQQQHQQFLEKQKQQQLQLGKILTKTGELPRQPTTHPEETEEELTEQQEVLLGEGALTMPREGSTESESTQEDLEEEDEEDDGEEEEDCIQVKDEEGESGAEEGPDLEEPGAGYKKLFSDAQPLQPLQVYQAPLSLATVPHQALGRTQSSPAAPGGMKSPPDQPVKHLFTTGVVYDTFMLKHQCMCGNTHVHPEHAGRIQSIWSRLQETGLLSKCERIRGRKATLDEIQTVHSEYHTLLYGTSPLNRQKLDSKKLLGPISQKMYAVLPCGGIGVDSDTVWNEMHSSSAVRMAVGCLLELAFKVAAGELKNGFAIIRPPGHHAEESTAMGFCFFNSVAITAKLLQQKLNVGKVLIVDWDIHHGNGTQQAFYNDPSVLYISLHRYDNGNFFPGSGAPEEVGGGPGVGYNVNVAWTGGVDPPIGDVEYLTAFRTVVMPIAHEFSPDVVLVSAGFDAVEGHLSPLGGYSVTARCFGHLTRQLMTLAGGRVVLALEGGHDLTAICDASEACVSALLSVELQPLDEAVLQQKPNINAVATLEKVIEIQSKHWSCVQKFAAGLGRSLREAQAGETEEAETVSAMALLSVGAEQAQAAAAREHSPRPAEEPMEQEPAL

- IC50 (Human HDAC5): 1.55 µM
- IC50 (Human HDAC7): 0.85 µM
SMILES: CN(C)C(=O)N1CCC2(CC1)c1ccccc1C(=O)N2Cc1ccc(C(=O)NO)cc1 [Compound Example 11, 2-(4-(hydroxycarbamoyl)benzyl)-N,N-dimethyl-3-oxospiro[isoindoline-1,4′-piperidine]-1′-carboxamide]

- IC50 (Human HDAC5): > 10 µM
- IC50 (Human HDAC7): 3.1 µM
SMILES: O=C(NO)c1ccc(CN2C(=O)c3ccccc3C23CCN(C2CC2)CC3)cc1 [Compound Example 12, 4-((1′-cyclopropyl-3-oxospiro[isoindoline-1,4′-piperidin]-2-yl)methyl)-N-hydroxybenzamide]

- AUC ([1]; male, C57 Bl/6J, 7 mg/kg, mouse plasma, oral dosing, read-out: AUC (area under curve)): ~16 µM·h
- AUC(0-t) ([1]; male, C57 Bl/6J, mouse, plasma, po, 7 mg/kg, mouse plasma, 7 mg/kg PO, Average): 7380 ng·h/mL and 15.9 µM·h
- AUC(0-inf) ([1]; male, C57 Bl/6J, mouse, plasma, po, 7 mg/kg, mouse plasma, 7 mg/kg PO, Average, read-out: AUCINF_obs (converted)): 7860 ng·h/mL
- Cmax ([1]; male, C57 Bl/6J, mouse, plasma, po, 7 mg/kg, mouse plasma, 7 mg/kg PO, Average, read-out: Cmax): 2490 ng/mL and 5.39 µM
- half-life ([1]; male, C57 Bl/6J, mouse, plasma, po, 7 mg/kg, mouse plasma, 7 mg/kg PO, Average, read-out: T1/2 (converted)): 1.9 h
- half-life ([1]; male, C57 Bl/6J, mouse, plasma, po, 7 mg/kg, mouse plasma, 7 mg/kg PO, individual mice (Mouse-1 to Mouse-3), read-out: T1/2 (converted)): 1.65 h
- Cmax ([1]; male, C57 Bl/6J, mouse, plasma, po, 7 mg/kg, mouse plasma, 7 mg/kg PO, individual mice, read-out: Cmax): 3200 ng/mL and 6.91 µM
- half-life ([1]; male, C57 Bl/6J, mouse, plasma, po, 7 mg/kg, mouse plasma, oral dosing, read-out: half-life (converted)): 1.9 h
- bioavailability ([1]; male, C57 Bl/6J, plasma, 7 mg/kg, mouse, oral dosing, read-out: bioavailability (% F)): 31%
- bioavailability ([1]; male, C57 Bl/6J, plasma, mouse, 7 mg/kg PO vs 1 mg/kg IV, Average, read-out: % F): 31%
- Tmax ([1]; male, C57 Bl/6J, mouse plasma, 7 mg/kg PO, individual mice): 1 h
- AUC (% Extrap) [1, 3]: 6.54%
- Cl_obs [1, 3]: 16.34 mL/min/kg
- T1/2 ([1]; mouse plasma, 7 mg/kg PO, individual mice (Mouse-1 to Mouse-3), 7 mg/kg): 2.25 h and 1.78 h
- AUC (% Extrap) [1, 4]: 5.20% and 9.47% and 4.97%
- Cmax [1, 4]: 1930 ng/mL and 2350 ng/mL
- Cmax ([1]; mouse plasma, 7 mg/kg PO, individual mice, 7 mg/kg, read-out: Cmax): 4.17 µM and 5.08 µM
- brain penetration (in words) ([2]; IV 1 mg/kg): very low brain penetration
- Brain concentration [2, 5]: 61.9 ng/mL and 0 ng/mL and 73 ng/mL
- concentration at 1 h ([2]; IV 1 mg/kg, individual mice (7, 8, 9), 1 mg/kg, read-out: Brain concentration): 0.13 µM and 0.00 µM and 0.16 µM
- concentration at 1 h ([2]; mouse, brain, iv, 1 mg/kg, Average, read-out: Brain concentration): 67.5 ng/mL and 150 nM
- concentration at 1 h ([2]; mouse, plasma, iv, 1 mg/kg, Average, read-out: Plasma concentration): 1440 ng/mL and 3.1 µM
- concentration at 1 h ([2]; mouse, plasma, iv, 1 mg/kg, individual mice (7, 8, 9), read-out: Plasma concentration): 1660 ng/mL and 3.59 µM
SMILES: CN1CCC2(CC1)CN(c1ccc(C(=O)Nc3cc(-c4cccs4)ccc3N)cn1)C(=O)O2 [Example 4, N-(2-amino-5-(thiophen-2-yl)phenyl)-6-(8-methyl-2-oxo-1-oxa-3,8-diazaspiro[4.5]decan-3-yl)nicotinamide]
- AUCINF_obs [1, 4]: 690882 ng·min/mL and 335315 ng·min/mL and 388640 ng·min/mL
- AUClast [1, 4]: 654948 min*ng/mL and 303573 min*ng/mL and 369340 min*ng/mL and 23.58 μM.hr and 10.93 μM.hr and 13.30 μM.hr
- Cl_obs [1, 4]: 10.13 mL/min/kg and 20.88 mL/min/kg and 18.01 mL/min/kg
- Plasma concentration [2, 5]: 1030 ng/mL and 2.22 μM and 1620 ng/mL and 3.50 μM
